Test results as given in PubChem BioAssay AID248 (DTP/NCI, 2004).
Where “and” joins values, the source holds several entries; their conditions need not be identical. Equal values may be shown once. Inconclusive results and toxic doses are left out. No stated cut-off is given here; in the data, active means T/C of 150% or more; inactive means T/C below 125%.

Test system: L1210 leukemia ip in BDF1 mice, survival T/C
Assay: NCI In Vivo Anticancer Drug Screen. Data for tumor model L1210 Leukemia (intraperitoneal) in B6D2F1 (BDF1) mice
Settings: endpoint: mean survival time, higher = longer survival
Summary of the method: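 Read-out is survival time, reported as the treated-group measurement over the vehicle-control measurement.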

[1] = dose: 100.0 mg/kg/injection, schedule: Q01DX009 (ip), vehicle: saline with Tween-80
[2] = dose: 200.0 mg/kg/injection, schedule: Q01DX009 (ip), vehicle: saline with Tween-80
[3] = dose: 100.0 mg/kg/injection, schedule: Q01DX001 (ip), vehicle: saline
[4] = dose: 200.0 mg/kg/injection, schedule: Q01DX001 (ip), vehicle: saline
[5] = dose: 400.0 mg/kg/injection, schedule: Q01DX001 (ip), vehicle: saline
[6] = dose: 100.0 mg/kg/injection, schedule: Q01DX009 (ip), vehicle: Klucel (hydroxypropylcellulose) (HPC)
[7] = dose: 100.0 mg/kg/injection, schedule: Q04DX003 (ip), vehicle: Klucel (hydroxypropylcellulose) (HPC)
[8] = dose: 200.0 mg/kg/injection, schedule: Q01DX009 (ip), vehicle: Klucel (hydroxypropylcellulose) (HPC)
[9] = dose: 200.0 mg/kg/injection, schedule: Q04DX003 (ip), vehicle: Klucel (hydroxypropylcellulose) (HPC)
[10] = dose: 400.0 mg/kg/injection, schedule: Q01DX009 (ip), vehicle: Klucel (hydroxypropylcellulose) (HPC)
[11] = dose: 400.0 mg/kg/injection, schedule: Q04DX003 (ip), vehicle: Klucel (hydroxypropylcellulose) (HPC)
[12] = dose: 100.0 mg/kg/injection, schedule: Q01DX001 (ip), vehicle: saline with Tween-80
[13] = dose: 200.0 mg/kg/injection, schedule: Q01DX001 (ip), vehicle: saline with Tween-80
[14] = dose: 400.0 mg/kg/injection, schedule: Q01DX001 (ip), vehicle: saline with Tween-80
[15] = dose: 100.0 mg/kg/injection, schedule: Q04DX003 (ip), vehicle: saline with Tween-80
[16] = dose: 50.0 mg/kg/injection, schedule: Q01DX001 (ip), vehicle: saline
[17] = dose: 200.0 mg/kg/injection, schedule: Q04DX003 (ip), vehicle: saline with Tween-80
[18] = dose: 100.0 mg/kg/injection, schedule: Q04DX003 (ip), vehicle: saline
[19] = dose: 200.0 mg/kg/injection, schedule: Q04DX003 (ip), vehicle: saline
[20] = dose: 400.0 mg/kg/injection, schedule: Q04DX003 (ip), vehicle: saline
[21] = dose: 50.0 mg/kg/injection, schedule: Q01DX009 (ip), vehicle: saline

Measured: T/C

COc1ccc(N=Nc2nccs2)c(O)c1
inactive: dose: 50.0 mg/kg/injection, schedule: Q01DX009 (ip), vehicle: saline with Tween-80 102 % of control | [1] 98 % of control | [2] 109 % of control

CCO[Si](C)(C)CCl
inactive: [3] 98 % of control | [4] 101 % of control | [5] 106 % of control

Cc1ccc2ccccc2c1CC(=O)O
inactive: [6] 101 % of control | [7] 112 % of control | [8] 95 % of control | [9] 96 % of control | [10] 117 % of control | [11] 96 % of control

Cc1ccc(S(=O)(=O)OCC(C)(C)NC(=O)c2ccc([N+](=O)[O-])cc2)cc1
inactive: [12] 91 % of control | [13] 105 % of control | [14] 91 % of control

CC(=O)N=C1C=C(NC(C)=O)C(=O)c2ncccc21
inactive: dose: 50.0 mg/kg/injection, schedule: Q04DX003 (ip), vehicle: saline with Tween-80 96 % of control | [15] 96 % of control

CCCC1OCC(C)C(C)O1 (stereo not given)
inactive: dose: 50.0 mg/kg/injection, schedule: Q01DX009 (ip), vehicle: acetone 101 % of control | dose: 100.0 mg/kg/injection, schedule: Q01DX009 (ip), vehicle: acetone 98 % of control | dose: 100.0 mg/kg/injection, schedule: Q04DX003 (ip), vehicle: acetone 106 % of control | dose: 200.0 mg/kg/injection, schedule: Q01DX009 (ip), vehicle: acetone 112 % of control | dose: 200.0 mg/kg/injection, schedule: Q04DX003 (ip), vehicle: acetone 109 % of control | dose: 400.0 mg/kg/injection, schedule: Q04DX003 (ip), vehicle: acetone 123 % of control

C[C@]12C=CC(=O)C=C1CC[C@@H]1[C@@H]2[C@@H](O)C[C@@]2(C)[C@H]1CC[C@]2(O)C(=O)COC(=O)C1CCCC1
inactive: dose: 89.0 mg/kg/injection, schedule: Q01DX Z (sc), vehicle: distilled water + alcohol 111 % of control | dose: 89.0 mg/kg/injection, schedule: Q01DX Z (sc), vehicle: steriod suspending solution 104 % of control | dose: 130.0 mg/kg/injection, schedule: Q01DX Z (sc), vehicle: steriod suspending solution 98 % of control | dose: 133.0 mg/kg/injection, schedule: Q01DX Z (sc), vehicle: distilled water + alcohol 96 % of control | dose: 200.0 mg/kg/injection, schedule: Q01DX Z (sc), vehicle: distilled water + alcohol 96 % of control | dose: 200.0 mg/kg/injection, schedule: Q01DX Z (sc), vehicle: steriod suspending solution 112 % of control | dose: 300.0 mg/kg/injection, schedule: Q01DX Z (sc), vehicle: distilled water + alcohol 108 % of control | dose: 300.0 mg/kg/injection, schedule: Q01DX Z (sc), vehicle: steriod suspending solution 93 % of control

ClCC1Oc2ccccc2O1
inactive: dose: 100.0 mg/kg/injection, schedule: Q01DX001 (ip), vehicle: other 101 % of control | dose: 400.0 mg/kg/injection, schedule: Q01DX001 (ip), vehicle: other 97 % of control

CCCCCCCCCCCCCCCCCCC[As](=O)(O)CCCCCCCCCCCCCCCCCCC
inactive: [16] 97 % of control | [3] 89 % of control | [4] 95 % of control | [5] 91 % of control

C=C1CC2C=CC1C2 (stereo not given) (tested in a mixture with another compound)
inactive: [12] 98 % of control | [13] 93 % of control | [14] 94 % of control

CCOC(=O)c1ccc(NC(=S)NC(=O)/C=C/c2ccccc2)cc1
inactive: [1] 92 % of control | [15] 91 % of control | [2] 100 % of control | [17] 94 % of control | dose: 400.0 mg/kg/injection, schedule: Q01DX009 (ip), vehicle: saline with Tween-80 97 % of control | dose: 400.0 mg/kg/injection, schedule: Q04DX003 (ip), vehicle: saline with Tween-80 101 % of control

O=C(CC(C(=O)c1ccccc1)c1ccccc1)c1ccccc1 (stereo not given)
inactive: [6] 93 % of control and 89 % of control | [8] 103 % of control | [10] 94 % of control and 103 % of control

COC1OC2COC(c3ccccc3)OC2C(NC(C)=O)C1OC(C)=O (stereo not given)
inactive: [18] 98 % of control | [19] 97 % of control | [20] 101 % of control

CCOC(=O)C12CCC(C1=O)C(C)(O)CC2 (stereo not given)
inactive: [15] 108 % of control | [17] 97 % of control

CC(CN1CCCC1)C(O)(Cc1ccccc1)c1ccccc1 (stereo not given)
inactive: dose: 25.0 mg/kg/injection, schedule: Q01DX009 (ip), vehicle: saline 95 % of control | [21] 95 % of control | [18] 92 % of control

C=C1CC(=O)N(c2ccc(Cl)cc2)C1=O
inactive: dose: 25.0 mg/kg/injection, schedule: Q01DX001 (ip), vehicle: saline with Tween-80 93 % of control | dose: 50.0 mg/kg/injection, schedule: Q01DX001 (ip), vehicle: saline with Tween-80 98 % of control | [12] 97 % of control

CCCCOc1ccc(C(N)=S)c2ccccc12
inactive: dose: 100.0 mg/kg/injection, schedule: Q01DX001 (ip), vehicle: Klucel (hydroxypropylcellulose) (HPC) 105 % of control | dose: 200.0 mg/kg/injection, schedule: Q01DX001 (ip), vehicle: Klucel (hydroxypropylcellulose) (HPC) 112 % of control | dose: 400.0 mg/kg/injection, schedule: Q01DX001 (ip), vehicle: Klucel (hydroxypropylcellulose) (HPC) 94 % of control

O=S(=O)(O)c1cccnc1
inactive: dose: 19.63 mg/kg/injection, schedule: Q01DX Z (ip), vehicle: carboxymethylcellulose (CMC) 102 % of control | dose: 39.25 mg/kg/injection, schedule: Q01DX Z (ip), vehicle: carboxymethylcellulose (CMC) 93 % of control | dose: 78.5 mg/kg/injection, schedule: Q01DX Z (ip), vehicle: carboxymethylcellulose (CMC) 92 % of control | [3] 102 % of control | dose: 157.0 mg/kg/injection, schedule: Q01DX Z (ip), vehicle: carboxymethylcellulose (CMC) 91 % of control | [4] 98 % of control | [5] 98 % of control

O=c1cc(Nc2cccc(-c3ccccc3)c2)[nH]c(=O)[nH]1
inactive: dose: 87.5 mg/kg/injection, schedule: Q01DX001 (ip), vehicle: gum acacia 90 % of control | dose: 175.0 mg/kg/injection, schedule: Q01DX001 (ip), vehicle: gum acacia 102 % of control | dose: 350.0 mg/kg/injection, schedule: Q01DX001 (ip), vehicle: gum acacia 95 % of control

CCN(CC)CCNC(=O)c1c2c(nc3ccccc13)CCCC2
inactive: [3] 103 % of control | [4] 102 % of control | [5] 98 % of control

O=C(O)/C=C/c1cccc(Br)c1
inactive: dose: 50.0 mg/kg/injection, schedule: Q01DX001 (ip), vehicle: carboxymethylcellulose (CMC) 101 % of control | dose: 100.0 mg/kg/injection, schedule: Q01DX001 (ip), vehicle: carboxymethylcellulose (CMC) 97 % of control | dose: 200.0 mg/kg/injection, schedule: Q01DX001 (ip), vehicle: carboxymethylcellulose (CMC) 97 % of control | dose: 400.0 mg/kg/injection, schedule: Q01DX001 (ip), vehicle: carboxymethylcellulose (CMC) 101 % of control

COC1OC(CO)C(O)C1n1cnc2c(N)ncnc21 (stereo not given)
inactive: dose: 25.0 mg/kg/injection, schedule: Q01DX001 (ip), vehicle: saline 90 % of control | [16] 106 % of control | [3] 103 % of control

S=C([S-])N(Cc1ccccc1)Cc1ccccc1.S=C([S-])N(Cc1ccccc1)Cc1ccccc1.[Zn]
inactive: [21] 104 % of control | dose: 100.0 mg/kg/injection, schedule: Q01DX009 (ip), vehicle: saline 102 % of control | [18] 94 % of control | dose: 200.0 mg/kg/injection, schedule: Q01DX009 (ip), vehicle: saline 104 % of control | [19] 97 % of control | [20] 89 % of control
